# According to US20210386743A1, “USE OF PDE9 INHIBITORS FOR TREATMENT” (The Johns Hopkins University, priority 2018, published 2021):
# “Also recorded” adds a separate entry of the source.
# How the values were obtained:
# Assay type in all cases: in vivo, mouse
# [1] = system: OVX+HFD+TAC female mice (C57BL/6N); experiment: Echocardiography of cardiac function and structure in OVX+HFD+TAC female mice; conditions: OVX+HFD+TAC females, vs vehicle; for left ventricular hypertrophy (LV Mass) / ejection fraction (EF) / fractional shortening (FS): serial echo, drug started 1 week after TAC; for left ventricular hypertrophy (LV Mass): oral gavage 20 mg/kg twice daily, 20 mg/kg
# Protocol: (§1) All animals were fed a high fat diet (HFD) consisting of 60% kcal derived from fat was fed to both male and female C57BL6N mice for 3 months. Mice were divided into two groups: 1) Controls with intact ovaries; 2) Ovariectomized (Ovx) mice. Mice were assigned to receive trans-aortic constriction (TAC) or sham surgery after 3 months of HFD, and further randomized to placebo vehicle and PDE9-I (PDE9 inhibitor oral gavage 20 mg/kg twice daily) (FIG. 1). Comparison of Group 1 and 2 tests the efficacy of PDE9-I to ameliorate and/or reverse HFD and pressure-overload pathophysiology independent of sex hormone status.
# (§2) Changes in cardiac function and structure were measured using echocardiogram, histopathology and markers of cardiac stress (Nppa Gene expression by RT-qPCR). For qPCR, RNA is isolated from left ventricular myocardium (Trizol Reagent, Invitrogen), reverse transcribed to cDNA (High Capacity RNA-to-cDNA Kit, Applied Biosystems, Life Technologies), and undergoes PCR amplification using TaqMan probes for atrial natriuretic peptide (Nppa) (mouse #Mm01255747_g1, rat #Rn00664637_g1). The threshold cycle value was determined using the crossing point method, and samples normalized to the GAPDH for each run. Echocardiography was performed in conscious mice using serial M-mode transthoracic echocardiography (VisualSonics Vevo 2100, 18-38 MHz transducer; SanoSite Inc.). Images were obtained and analyzed by an individual blinded to the animal condition.
# Female mice (C57BL/6N) were placed on a 60% fat diet starting at age 5-weeks. Two weeks later, there were randomized to receive bilateral oophorectomy or sham surgery. Cardiac imaging for ventricular function and morphometry was determined 2 months later. Between 8-11 weeks after ovariectomy, the mice underwent a second surgical procedure introducing a mild aortic constriction (TAC) in the transverse aorta to increase pressure load on the heart. The purpose of the TAC procedure was to stimulate the heart to synthesize natriuretic peptide, which is important for the generation of cyclic GMP which PDE9 regulates. Serial echocardiograms were obtained, and starting 1 week after TAC, mice were further randomized to receive vehicle control or a PDE9 inhibitor (PF-7943). Intact mouse metabolic studies, fat/lean mass determinations, and heart function were assessed. At terminal study, tissues were harvested for molecular signaling.
# [2] = system: C57BL6/N female mice with intact ovaries, HFD+TAC; experiment: Body weight and body composition in HFD+TAC female mice with intact ovaries; conditions: females with intact ovaries, vs vehicle
# Protocol: as §1
# Body composition: total fat mass, lean mass, and water content was determined by quantitative nuclear magnetic resonance (Echo-MRI®). In brief, after 20 weeks on the HFD, total body fat and lean body mass were assessed non-invasively by EchoMRI instrument. The analyzer delivers precise body composition measurements of fat, lean, free water, and total water masses in live animals weighing up to 100 grams. Conscious mice were placed in a constraint tube that was then inserted into the EchoMRI for a period of approximately 30 s and these measurements obtained.
# In a second experiment, we examined the impact of PDE9 inhibition on female mice (C57BL6/N) subjected to HFD+TAC, but without ovariectomy and thus had normal estrogen levels.
# [3] = system: male HFD+TAC mice; experiment: Cardiac remodeling (echocardiography, Nppa RT-qPCR) in obese male HFD+TAC mice; conditions: vs vehicle; for natriuretic peptide (Nppa) gene expression in myocardium: RT-qPCR; for cardiac hypertrophy (LV mass): drug started 1 week after TAC
# Protocol: as §1, §2
# (§3) In a third experiment, we exposed male mice of a similar starting age (5 weeks) to the same HFD protocol, and then same TAC protocol. As before, mice were randomized to either vehicle control or active PDE9-inhibitor starting 1 week after the TAC procedure. FIG. 11.
# [4] = system: male HFD+TAC mice; experiment: Whole body metabolism (indirect calorimetry) in male HFD+TAC mice
# Protocol: as §1
# Whole body metabolism: Indirect calorimetry was used to assess metabolic parameters in live animals using the OxyMAX Comprehensive Lab Animal Monitoring System (Columbus Instruments, Columbus Ohio). Basic metabolic rate (VO2 consumption), VCO2 release and energy expenditure (EE) were measured by indirect calorimetry in high-fat-fed OVX mice groups treated with (Drug) and without PDE9 inhibitor (Control). Respiratory exchange ratio (RER) was calculated from VCO2 release-to-VO2 consumption ratio (VCO2 release/VO2 consumption). CLAMS cabinet was used to measure oxygen consumption rate at 22° C. (VO2), CO2 emission, respiratory exchange ratio, heat production, food consumption (g consumed per day), and total and ambulatory activity per day.
# as §3
# [5] = end of study, listed as PDE9 inhibitor
structure (smiles),measurement,setting,value
C[C@@H]1CN(Cc2ncccn2)C[C@H]1c1nc2c(cnn2C2CCOCC2)c(=O)[nH]1 [PF 04447943],cardiac output,[1]; end of study,restoration towards normal control values
same,ejection fraction,[1]; end of study,restoration towards normal control values
same,"ventricular end-diastolic volume (Volume, d)",[1]; end of study,restoration towards normal control values
same,"ventricular end-systolic volume (Volume, s)",[1]; end of study,restoration towards normal control values
same,early to late atrial (E/A) filling,[1]; [5],restored; also recorded: restoration towards normal control values
same,isovolumic ventricular relaxation time (IVRT),[1]; [5],restored; also recorded: restoration towards normal control values
same,left ventricular hypertrophy (LV Mass),[1],reduced left ventricular hypertrophy
same,left ventricular hypertrophy (LV Mass),[1]; listed as PDE9 inhibitor,reduced LV mass
same,ejection fraction (EF),[1],greater
same,fractional shortening (FS),[1],greater fractional shortening
same,ejection fraction (EF),[1]; listed as PDE9 inhibitor,improved FS and EF
same,fractional shortening (FS),[1]; listed as PDE9 inhibitor,improved FS
same,fat mass,[2]; listed as PDE0-I,no significant change
same,lean mass,[2]; listed as PDE0-I,no significant change
same,percent fat mass,[2]; listed as PDE0-I,no significant change
same,percent lean mass,[2]; listed as PDE0-I,no significant change
same,total body weight,[2]; listed as PDE0-I,no significant change
same,fat mass,[2]; listed as PDE9 inhibitor,did not have any alteration
same,lean mass,[2]; listed as PDE9 inhibitor,did not have any alteration
same,percent fat mass,[2]; listed as PDE9 inhibitor,did not have any alteration
same,percent lean mass,[2]; listed as PDE9 inhibitor,did not have any alteration
same,total body weight,[2]; listed as PDE9 inhibitor,did not have any alteration
same,natriuretic peptide (Nppa) gene expression in myocardium,[3]; listed as PDE9-I,reduced
same,natriuretic peptide (Nppa) gene expression in myocardium,[3]; listed as PDE9-inhibitor,reduced by active therapy
same,cardiac hypertrophy (LV mass),[3]; listed as PDE9-inhibitor,reduced left heart mass
same,cardiac hypertrophy (LV mass),[3]; listed as PDE9 inhibitor,significantly lowers cardiac hypertrophy
same,ejection fraction,[3]; listed as PDE9-inhibitor,increases in both fractional shortening and ejection fraction
same,fractional shortening,[3]; listed as PDE9-inhibitor,increases in both fractional shortening and ejection fraction
same,ejection fraction,[3]; listed as PDE9 inhibitor,improves cardiac function
same,fractional shortening,[3]; listed as PDE9 inhibitor,improves cardiac function
same,CO2 generation,[4],did not display consistent changes
same,RER,[4],did not display consistent changes
same,energy expenditure (heat generation),[4]; listed as PDE9-inhibitor,did not demonstrate increases; also recorded: did not display consistent changes
same,oxygen consumption (metabolic rate),[4]; listed as PDE9-inhibitor,did not demonstrate increases; also recorded: did not display consistent changes
